Test results taken from the supplement of paper PMC10307832.

compound: COC1=C(C=C(C=C1)C2=CC3=NC=CN3C(=N2)NC4=C(C=CC=N4)C(=O)N)OC [BAY61-3606] + N=C(N)NC(=N)NCCc1ccccc1 [Phenformin] (partner 250 µM); assay: relative viability (nuclei count vs DMSO), 5 days (fraction); higher = more cells survive; conditions: first compound 0.02 µM
How it was run: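 Dosing by pin tool came one day after lung cancer cell lines were seeded in 1536-well plates, using either one drug or a fixed anchor-drug dose plus five library-drug doses (not always all listed) in √10 steps. After 5 days, nuclei were counted on 4× images. Relative viability is treated-well nuclei count divided by vehicle-well nuclei count, and values are medians of duplicate plates.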

Cell Line	relative viability
HARA	0.433
SW 900	0.736
HCC-827	0.392
NCI-H520	0.552
LOU-NH91	0.716
NCI-H2023	0.491
A-427	0.417
NCI-H647	0.562
NCI-H1755	0.666
NCI-H650	0.435
NCI-H3122	0.418
NCI-H441	0.818
NCI-H1395	0.459
201T	0.461
NCI-H1975	0.41
HOP-62	0.629

Cell Line	relative viability
NCI-H2405	0.429
NCI-H1355	0.484
NCI-H838	0.628
CAL-12T	0.559
NCI-H1666	0.544
EPLC-272H	0.254
NCI-H2347	0.563
NCI-H1915	0.369
NCI-H1437	0.345
NCI-H460	0.549
NCI-H1792	0.37
NCI-H2085	0.793
HCC-15	0.474
NCI-H1944	0.211
EKVX	0.239

same assay, conditions: first compound 0.06325 µM

Cell Line	relative viability
HARA	0.35
SW 900	0.456
HCC-827	0.435
NCI-H520	0.446
LOU-NH91	0.697
NCI-H2023	0.369
A-427	0.235
NCI-H647	0.294
PC-3 [JPC-3]	0.491
NCI-H1755	0.6
NCI-H650	0.42
NCI-H3122	0.308
NCI-H441	0.934
NCI-H1395	0.371
201T	0.425
NCI-H1975	0.413

Cell Line	relative viability
HOP-62	0.645
NCI-H2405	0.259
NCI-H1355	0.368
NCI-H838	0.489
CAL-12T	0.592
NCI-H1666	0.538
EPLC-272H	0.294
NCI-H2347	0.359
NCI-H1915	0.376
NCI-H1437	0.312
NCI-H460	0.48
NCI-H2085	0.755
HCC-15	0.457
NCI-H1944	0.196
EKVX	0.228

same assay, conditions: first compound 0.2 µM

Cell Line	relative viability
HARA	0.432
SW 900	0.489
HCC-827	0.389
NCI-H520	0.659
LOU-NH91	0.695
NCI-H2023	0.386
A-427	0.287
NCI-H647	0.496
PC-3 [JPC-3]	0.476
NCI-H1755	0.578
NCI-H650	0.375
NCI-H3122	0.386
NCI-H441	0.782
NCI-H1395	0.444
201T	0.449
NCI-H1975	0.412

Cell Line	relative viability
HOP-62	0.635
NCI-H2405	0.383
NCI-H1355	0.406
NCI-H838	0.621
CAL-12T	0.502
NCI-H1666	0.524
EPLC-272H	0.312
NCI-H2347	0.544
NCI-H1915	0.328
NCI-H1437	0.304
NCI-H460	0.494
NCI-H1792	0.336
NCI-H2085	0.717
HCC-15	0.458
NCI-H1944	0.193
EKVX	0.221

same assay, conditions: first compound 0.6325 µM

Cell Line	relative viability
HARA	0.494
SW 900	0.594
HCC-827	0.358
NCI-H520	0.67
LOU-NH91	0.702
NCI-H2023	0.438
A-427	0.315
NCI-H647	0.393
PC-3 [JPC-3]	0.454
NCI-H1755	0.656
NCI-H650	0.428
NCI-H3122	0.42
NCI-H441	0.972
NCI-H1395	0.469
201T	0.511
NCI-H1975	0.394

Cell Line	relative viability
HOP-62	0.667
NCI-H2405	0.38
NCI-H1355	0.448
NCI-H838	0.388
CAL-12T	0.557
NCI-H1666	0.531
EPLC-272H	0.303
NCI-H2347	0.455
NCI-H1915	0.366
NCI-H1437	0.283
NCI-H460	0.493
NCI-H1792	0.544
NCI-H2085	0.757
HCC-15	0.474
NCI-H1944	0.201
EKVX	0.222

same assay, conditions: first compound 2 µM

Cell Line	relative viability
HARA	0.369
SW 900	0.473
HCC-827	0.347
NCI-H520	0.51
LOU-NH91	0.649
NCI-H2023	0.322
A-427	0.257
NCI-H647	0.29
PC-3 [JPC-3]	0.463
NCI-H1755	0.59
NCI-H650	0.405
NCI-H3122	0.384
NCI-H441	0.652
NCI-H1395	0.414
201T	0.444
NCI-H1975	0.301

Cell Line	relative viability
HOP-62	0.534
NCI-H2405	0.41
NCI-H1355	0.41
NCI-H838	0.277
CAL-12T	0.266
NCI-H1666	0.491
EPLC-272H	0.228
NCI-H2347	0.538
NCI-H1915	0.261
NCI-H1437	0.284
NCI-H460	0.106
NCI-H1792	0.333
NCI-H2085	0.64
HCC-15	0.454
NCI-H1944	0.182
